“Also recorded” adds a separate entry of the source. Peptide text beside a SMILES is read from it. * marks the point of attachment. Cbz = O=C(OCc1ccccc1)*
Legend:
A3AR [1] = biological target: T1, A3AR (Mus musculus, UniProt Q61618); assay: Western blot analysis of A3AR protein in B16-F10 melanoma cells; type: cell-based; settings: B16-F10 melanoma cells exposed for 180 minutes to IB-MECA in the presence of the inhibitor
T1 construct: endogenous in cells; host or cells: B16-F10 melanoma cells
T1 sequence (Q61618 1-319): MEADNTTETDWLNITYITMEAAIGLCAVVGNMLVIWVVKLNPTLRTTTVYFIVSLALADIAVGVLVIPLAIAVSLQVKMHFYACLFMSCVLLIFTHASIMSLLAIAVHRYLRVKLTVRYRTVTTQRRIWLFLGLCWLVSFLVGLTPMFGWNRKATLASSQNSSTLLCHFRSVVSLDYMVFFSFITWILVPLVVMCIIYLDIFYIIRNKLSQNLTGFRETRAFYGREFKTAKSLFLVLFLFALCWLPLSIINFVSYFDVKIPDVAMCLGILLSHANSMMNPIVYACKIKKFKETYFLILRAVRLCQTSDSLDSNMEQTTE
Description: (§1) To detect the level of expression of the A3AR proteins Western blot analysis was performed. Cells were incubated in the presence and absence of IB-MECA (10 nM), MRS1523 (10 nM), Forskolin (50 nM), 8 Br cAMP (100 μM), Cycloheximide 20 μg/ml or MG 132 (20 nM) for different time periods at 37° C. Cells were then rinsed with ice-cold PBS and transferred to ice-cold lysis buffer (TNN buffer, 50 mM Tris buffer pH=7.5, 150 mM NaCl, NP 40). In the experiment examining the effect of trypsin on A3AR expression, cells were incubated with 0.5 ml of 0.25% trypsin for 5 minutes. The trypsinized cells were washed again with ice-cold PBS, harvested by centrifugation and subjected to lysis in TNN buffer. Cell debris was removed by centrifugation for 10 minutes, at 7500 xg. The supernatant was utilized for Western Blot analysis. Protein concentrations were determined using the Bio-Rad protein assay dye reagent. Equal amounts of the sample (50 μg) were separated by SDS-PAGE, using 12% polyacrylamide gels. The resolved proteins were then electroblotted onto nitrocellulose membranes (Schleicher & Schuell, Keene, NH, USA). Membranes were blocked with 1% bovine serum albumin and incubated with the desired primary antibody (dilution 1:1000) for 24 hours at 4° C. Blots were then washed and incubated with a secondary antibody for 1 hour at room temperature. Bands were recorded using BCIP/NBT color development kit (Promega, Madison, W1, USA). Data presented in the different figures are representative of at least three different experiments.
Receptor internalization by treating melanoma cells with trypsin, which removes the cell surface receptor, was examined.
Time dependent expression of A3AR in the melanoma cells was examined by Western blot analysis.

PKA and GSK-3β = assay: Receptor functionality: Western blot of PKA and GSK-3β in B16-F10 melanoma cells; type: cell-based
Description: as §1
To test receptor functionality, the protein expression level of PKA and GSK-3β, which are modulated downstream to A3AR activation, was examined. Functional receptor sensitization by IB-MECA was observed after 15 and 60 minutes and was manifested by decreased PKA and increased GSK-3β levels. […] Indeed, the modulatory effect of IB-MECA on PKA and GSK-3β was reversed in the presence of the above agents (FIG. 8a, 8b and 8c).

A3AR [2] = assay: Northern blot analysis of A3AR mRNA in B16-F10 melanoma cells; type: cell-based; settings: B16-F10 melanoma cells, antagonist with IB-MECA
Description: Total RNA was isolated from B16-F10 melanoma cells treated with IB-MECA, utilizing Tri-reagent (Sigma, Saint Louis). The samples were then subjected twice to phenol:chloroform extraction and washed with chloroform. RNA was precipitated with sodium acetate/ethanol following washing with ethanol, then denatured, separated (25 μg per lane) in 1.1% formaldehyde agarose gels and transferred to Hybond-N membrane. The 390 bp EcoRI fragment from A3AR cDNA clone of mouse (TAA3I.S), kindly supplied by Dr Kathia Ravid, was prepared by random-primed synthesis. Probes were used in RNA blot analysis at a hybridization temperature of 42° C. in the presence of 50% formamide.

[3] = tested on: adjuvant induced arthritis; assay: Adjuvant induced arthritis (AIA) in rats, clinical and histological score; type: in vivo; settings: administered 30 minutes prior to IB-MECA
Description: AIA in Rats: Female Lewis rats, aged 8-12 weeks, obtained from Harlan Laboratories (Jerusalem, Israel), were injected subcutaneously (s.c.) at the tail base with 100 μl of suspension composed of incomplete Freund's adjuvant (IFA) with 10 mg/ml heat killed Mycobacterium tuberculosis, (Mt) H37Ra, (Difco, Detroit, USA). To assess the clinical disease activity score, the animals were inspected every second day for clinical arthritis. The scoring system ranged from 0-4 of each limb: 0-no arthritis; 1-redness or swelling of one toe/finger joint; 2-redness and swelling of more than one toe/finger joints; 3-the ankle and tarsal-metatarsal joints involvement; 4-entire paw redness or swelling. The arthritic score was calculated by adding the four individual legs' score to a maximum of 16. For histological scoring, Animals were sacrificed, the legs were removed up to the knee level, fixed in 10% formaldehyde, decalcified, dehydrated, paraffin-embedded, cut into 4 μm sections and stained by Hematoxylin-Eosin. The assessment of all pathologic findings were performed blind using semi-quantitative grading scales of 0 to 4 for the following parameters: a) extent of inflammatory cells' infiltration to the joint tissues; b) synovial lining cell hyperplasia; c) pannus formation; and d) joint cartilage layers destruction. […] TNF-α was measured in synovia, DLN and spleen tissues derived from control and CF101 treated rats. […] Protein concentrations were determined using the Bio-Rad protein assay dye reagent. […] Bands were recorded using BCIP/NBT color development kit (Promega, Madison, Wis., USA). Densitometry of protein expression was normalized against β-actin and expressed as % of control. […]

[4] = tested on: A3AR, A2AR, PI3K, PKB/Akt, IKKα/β, NF-κB, TNF-α, GSK-3β, caspase-3; assay: Western blot of A3AR and downstream signaling proteins in DLN and synovial tissue of AIA rats; type: in vivo; settings: antagonist followed by IB-MECA

Compound | effect on IB-MECA-induced modulation of A3AR protein expression (A3AR [1]) | modulatory effect of IB-MECA on PKA and GSK-3β in the presence of the agent (PKA and GSK-3β) | further results
CC(C)C[C@@H](C=O)NC(=O)[C@H](CC(C)C)NC(=O)[C@H](CC(C)C)NC(=O)OCc1ccccc1 [MG132] (Cbz-Leu-Leu-Leu-aldehyde) | prevented A3AR down-regulation |  | 
CCCOC(=O)c1c(-c2ccccc2)nc(CC)c(C(=O)SCC)c1CCC [MRS1523] |  | reversed | effect on IB-MECA-induced A3AR mRNA expression (A3AR [2]): reversed the increase in mRNA expression
O=C(Cc1ccccc1)Nc1nc2ccc(Cl)cc2c2nc(-c3ccco3)nn12 [MRS 1220] |  |  | effect on the anti-inflammatory response of IB-MECA (clinical score) [3]: nullified; also recorded: nullification; effect on IB-MECA-induced A3AR modulation [4]: blocked this modulation
C[C@@H]1C[C@@H]([C@H](O)CC2CC(=O)NC(=O)C2)C(=O)[C@@H](C)C1 [cycloheximide] | inhibited receptor up-regulation |  | 
Nc1ncnc2c1nc(Br)n2[C@@H]1O[C@@H]2COP(=O)(O)O[C@H]2[C@H]1O [8-Br-cAMP] |  | reversed | 
